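Where inhibition never reached the appropriate level, the endpoint shown equals the highest concentration tested. Otherwise, values were interpolated linearly from a five-concentration, 48-hour dose response in 96-well plates. At the GI50, growth is halved.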 Activity calls are given as the source filed them. Rule as the data show it: active = GI50 up to about 1.1 µM and inactive = higher. Peptide text beside a SMILES is read from it. * marks the point of attachment. Cbz = O=C(OCc1ccccc1)*
Tests used:
Experiment in all cases: DTP human tumour cell line panel, 48 h
[1] = test system: T47D
[2] = test system: PC-3
[3] = test system: MOLT-4
[4] = test system: ACHN
[5] = test system: OVCAR-8
[6] = test system: SF-539
[7] = test system: MCF7
[8] = test system: OVCAR-3
[9] = test system: KM12
[10] = test system: BT-549
[11] = test system: TK-10
[12] = test system: COLO 205
[13] = test system: RPMI-8226
[14] = test system: SF-295
[15] = test system: K562
[16] = test system: M14
[17] = test system: SF-268
[18] = test system: CAKI-1
[19] = test system: LOX IMVI
[20] = test system: SK-OV-3

Compound: NCC(=O)C(O)C(O)C(O)CO (centres undefined)
- GI50 [1]: > 100 µM (inactive)
- GI50 [2]: > 100 µM (inactive)
- GI50 [3]: > 100 µM (inactive)
- GI50 [4]: > 100 µM (inactive)
- GI50 [5]: > 100 µM (inactive)
- GI50 [6]: > 100 µM (inactive)
- GI50 [7]: > 100 µM (inactive)
- GI50 [8]: > 100 µM (inactive)
- GI50 [9]: > 100 µM (inactive)
- GI50 [10]: > 100 µM (inactive)
- GI50 [11]: > 100 µM (inactive)
- GI50 [12]: > 100 µM (inactive)
- GI50 [13]: > 100 µM (inactive)
- GI50 [14]: > 100 µM (inactive)
- GI50 [15]: > 100 µM (inactive)
- GI50 [16]: > 100 µM (inactive)
- GI50 [17]: > 100 µM (inactive)
- GI50 [18]: > 100 µM (inactive)
- GI50 [19]: > 100 µM (inactive)
- GI50 [20]: > 100 µM (inactive)

Compound: C#CC(=O)OCC#CCOC(=O)C#C
- GI50 [1]: 23.7 µM (inactive)
- GI50 [2]: 28.7 µM (inactive)
- GI50 [4]: 18.3 µM (inactive)
- GI50 [5]: 30.8 µM (inactive)
- GI50 [6]: 15.3 µM (inactive)
- GI50 [7]: 20.9 µM (inactive)
- GI50 [8]: 17.9 µM (inactive)
- GI50 [9]: 19.3 µM (inactive)
- GI50 [10]: 18.6 µM (inactive)
- GI50 [11]: 16.3 µM (inactive)
- GI50 [12]: 17.9 µM (inactive)
- GI50 [13]: 15.1 µM (inactive)
- GI50 [14]: > 100 µM (inactive)
- GI50 [16]: 23.4 µM (inactive)
- GI50 [17]: > 100 µM (inactive)
- GI50 [18]: 19.8 µM (inactive)
- GI50 [19]: 1.05 µM (active)
- GI50 [20]: > 100 µM (inactive)

Compound: C/C(=N\Nc1nc2ccccc2s1)c1cc(C)ncn1
- GI50 [1]: 0.206 µM (active)
- GI50 [2]: 0.612 µM (active)
- GI50 [3]: 0.104 µM (active)
- GI50 [4]: 0.199 µM (active)
- GI50 [5]: 0.29 µM (active)
- GI50 [6]: 1.38 µM (inactive)
- GI50 [7]: 0.341 µM (active)
- GI50 [8]: 0.408 µM (active)
- GI50 [9]: 0.767 µM (active)
- GI50 [10]: 6.79 µM (inactive)
- GI50 [11]: 15.3 µM (inactive)
- GI50 [12]: 0.0543 µM (active)
- GI50 [13]: 0.337 µM (active)
- GI50 [14]: 2.73 µM (inactive)
- GI50 [15]: 0.129 µM (active)
- GI50 [16]: 0.474 µM (active)
- GI50 [17]: 0.318 µM (active)
- GI50 [18]: 0.145 µM (active)
- GI50 [19]: 0.499 µM (active)
- GI50 [20]: 1.28 µM (inactive)

Compound: Cc1cc2ncc3c(=O)n(NS(=O)(=O)c4ccc(N)cc4)ccc3n2n1
- GI50 [1]: > 100 µM (inactive)
- GI50 [2]: > 100 µM (inactive)
- GI50 [3]: > 100 µM (inactive)
- GI50 [4]: > 100 µM (inactive)
- GI50 [5]: > 100 µM (inactive)
- GI50 [6]: > 100 µM (inactive)
- GI50 [7]: > 100 µM (inactive)
- GI50 [8]: > 100 µM (inactive)
- GI50 [9]: > 100 µM (inactive)
- GI50 [10]: > 100 µM (inactive)
- GI50 [11]: > 100 µM (inactive)
- GI50 [12]: > 100 µM (inactive)
- GI50 [14]: > 100 µM (inactive)
- GI50 [16]: > 100 µM (inactive)
- GI50 [17]: > 100 µM (inactive)
- GI50 [18]: > 100 µM (inactive)
- GI50 [19]: > 100 µM (inactive)
- GI50 [20]: > 100 µM (inactive)

Compound: NC1(C(=O)OCc2ccccc2)CCCC1
- GI50 [1]: 25.3 µM (inactive)
- GI50 [2]: 27.2 µM (inactive)
- GI50 [3]: 11.8 µM (inactive)
- GI50 [4]: 15.2 µM (inactive)
- GI50 [5]: 12.9 µM (inactive)
- GI50 [6]: 11.2 µM (inactive)
- GI50 [7]: 25.1 µM (inactive)
- GI50 [8]: 11.6 µM (inactive)
- GI50 [9]: 26 µM (inactive)
- GI50 [10]: 17.1 µM (inactive)
- GI50 [11]: 82.4 µM (inactive)
- GI50 [12]: 28.1 µM (inactive)
- GI50 [13]: 14.2 µM (inactive)
- GI50 [14]: 15.9 µM (inactive)
- GI50 [15]: 14.8 µM (inactive)
- GI50 [16]: 14.5 µM (inactive)
- GI50 [17]: 15.1 µM (inactive)
- GI50 [18]: 19.4 µM (inactive)
- GI50 [19]: 18.2 µM (inactive)
- GI50 [20]: 21.9 µM (inactive)

Compound: Nc1nc(Cl)c(Cl)c(NCC2(O)CCC2)n1
- GI50 [1]: 2.76 µM (inactive)
- GI50 [2]: > 100 µM (inactive)
- GI50 [3]: 33 µM (inactive)
- GI50 [4]: > 100 µM (inactive)
- GI50 [5]: 92.9 µM (inactive)
- GI50 [6]: > 100 µM (inactive)
- GI50 [7]: 74.1 µM (inactive)
- GI50 [8]: 51.2 µM (inactive)
- GI50 [9]: > 100 µM (inactive)
- GI50 [10]: 44.6 µM (inactive)
- GI50 [11]: > 100 µM (inactive)
- GI50 [13]: 42 µM (inactive)
- GI50 [14]: 43.9 µM (inactive)
- GI50 [15]: 24.7 µM (inactive)
- GI50 [17]: > 100 µM (inactive)
- GI50 [18]: 16.1 µM (inactive)
- GI50 [19]: 28.5 µM (inactive)
- GI50 [20]: 39.3 µM (inactive)

Compound: CCOC(=O)C(C)NC(=O)C(C)NC(=O)C(C)NC(=O)C(C)NC(=O)C(C)NC(=O)C(C)NC(=O)C(C)NC(=O)OCc1ccccc1 (centres undefined) (Cbz-AAAAAAA-OEt; configuration not given here)
- GI50 [1]: > 100 µM (inactive)
- GI50 [2]: > 100 µM (inactive)
- GI50 [3]: > 100 µM (inactive)
- GI50 [4]: > 100 µM (inactive)
- GI50 [5]: > 100 µM (inactive)
- GI50 [6]: > 100 µM (inactive)
- GI50 [7]: > 100 µM (inactive)
- GI50 [8]: > 100 µM (inactive)
- GI50 [9]: > 100 µM (inactive)
- GI50 [10]: > 100 µM (inactive)
- GI50 [11]: > 100 µM (inactive)
- GI50 [12]: > 100 µM (inactive)
- GI50 [13]: > 100 µM (inactive)
- GI50 [14]: > 100 µM (inactive)
- GI50 [15]: > 100 µM (inactive)
- GI50 [16]: > 100 µM (inactive)
- GI50 [17]: > 100 µM (inactive)
- GI50 [18]: > 100 µM (inactive)
- GI50 [19]: > 100 µM (inactive)
- GI50 [20]: > 100 µM (inactive)

— ChEMBL document CHEMBL1201862, “PubChem BioAssay data set” (2004)
